According to article PMC8476755 (Frontiers in Chemistry, 2021):
Like-named read-outs stand apart in the source and are kept apart here.

Target: T1, GAT3 L314Q (Homo sapiens, UniProt P48066, L314Q)
T1 construct: expressed in transfected cells; host or cells: tsA201 (transformed HEK293), transient
T1 sequence (P48066 1-632 L314Q): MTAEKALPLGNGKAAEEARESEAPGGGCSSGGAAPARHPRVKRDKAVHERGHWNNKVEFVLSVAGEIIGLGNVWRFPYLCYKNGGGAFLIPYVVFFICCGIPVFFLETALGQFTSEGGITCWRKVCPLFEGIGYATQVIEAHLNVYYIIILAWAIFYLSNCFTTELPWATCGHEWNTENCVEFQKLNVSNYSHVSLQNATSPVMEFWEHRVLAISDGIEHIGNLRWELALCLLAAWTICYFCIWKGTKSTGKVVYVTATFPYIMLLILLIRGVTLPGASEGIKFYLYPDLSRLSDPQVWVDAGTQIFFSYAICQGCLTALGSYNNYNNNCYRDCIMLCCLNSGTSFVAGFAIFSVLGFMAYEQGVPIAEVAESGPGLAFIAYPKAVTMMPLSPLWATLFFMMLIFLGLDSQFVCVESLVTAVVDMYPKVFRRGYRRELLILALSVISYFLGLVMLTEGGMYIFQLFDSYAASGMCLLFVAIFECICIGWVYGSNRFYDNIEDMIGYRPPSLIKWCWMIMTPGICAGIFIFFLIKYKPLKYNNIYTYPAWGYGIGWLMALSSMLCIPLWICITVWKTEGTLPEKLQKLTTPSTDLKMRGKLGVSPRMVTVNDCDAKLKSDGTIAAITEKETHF
Assay: [3H]GABA uptake assay, transient expression in tsA201 cells
Format: cell-based
Settings: for Increase in inhibitory activity relative to wt: GAT3 L314Q vs GAT3 wt; for IC50: GAT3 L314Q, tsA201 cells
Excerpt: According to the docking and MD results, the sidechains of Q299 and E52 were identified to form crucial interactions with the protonated nitrogen of both compounds. The residue Q299 in human BGT1 corresponds to leucine in all other GATs (human, rat, mouse), while E52 corresponds to tyrosine in GAT1 (human, rat, mouse) but is conserved among GAT2, GAT3 and BGT1 (human, rat, mouse) (Figure 6A) ([Kickinger et al., 2019]). Thus, we engineered the corresponding mutants Q299L and E52Y in human BGT1 and predicted that the introduction of these mutations would lead to decreased activity of both bicyclo-GABA and 2 due to the loss of essential hydrogen bond interactions. Furthermore, we wanted to test the double mutant E52Y + Q299L. However, in a previous study this mutant was proven non-functional ([Kickinger et al., 2020]). Instead, we generated the double mutant E52A + Q299L as well as the single mutant E52A. For these mutants we predicted decreased activity. Lastly, the reciprocal mutation to BGT1 Q299L was created in GAT3 (L314Q), ideally expecting a gain-of-function.
FIGURE 6 (A) Pocket alignment of the orthosteric site of the four GAT subtypes colored according to the default ClustalX color scheme ([Larkin et al., 2007]). The pocket was defined as all corresponding GAT residues (15 in total) that are within a distance of 4.5 Å of the co-crystallized ligand leucine in the homologous LeuT crystal structure (PDB ID 2A65) ([Yamashita et al., 2005]) according to the alignment by Kickinger et al. ([Kickinger et al., 2019]). The mutated residues in BGT1 and the corresponding residues in GAT1-3 are indicated by a red box. The numbering of all residues within the orthosteric pocket can be found in the Supplementary Table S1.
The tsA201 cell line (a transformed HEK293 cell line), the Flp-In CHO cell lines stably expressing human (h) GATs and the HEK293 cell line stably expressing human α1β2γ2 GABAA receptors have been described previously and were cultured accordingly ([Al-Khawaja et al., 2014]; [Falk-Petersen et al., 2020]). The tsA201 cell line used for transient expression of hGATs was transfected with DNA constructs (8 μg per 10 cm plate) using 40 μL PolyFect transfection reagent according to the manufacturer’s protocol (Qiagen). All DNA constructs used have been described previously: wt hBGT1, wt GAT3 ([Kvist et al., 2009]), BGT1 Q299, GAT3 L314Q ([Jørgensen et al., 2017]), hBGT E52Y, BGT1 E52A and BGT1 E52A + Q299L ([Kickinger et al., 2020]).
Briefly, cells were seeded in white 96-well plates (White Opaque Tissue Culture (TC) plated 96-well Microplate) pre-coated with PDL. Medium was removed on the following day and cells washed with 100 µL/well assay buffer (HBSS supplemented with 20 mM HEPES, 1 mM CaCl2 and 1 mM MgCl2, pH 7.4). […] The cells were washed 3 times with 100 µL/well ice-cold assay buffer, 150 µL/well MicroScint™20 was subsequently added before the plate was shaken for at least 1 h. The plate was counted in a Packard TopCounter microplate scintillation counter (PerkinElmer) for 3 min per well. Typical counts per minute for the different GATs were in the range of: wt hBGT1 (100–4,000), BGT1 Q299 (100–1,000), hBGT E52Y (150–500), BGT1 E52A (150–8,000), BGT1 E52A + Q299L (150–500), wt GAT3 (200–8,000), GAT3 L314Q (100–1,500), wt GAT1 (100–10,000) and wt GAT2 (150–7,500). […] Data presented is the pooled data of at least three independent experiments with three technical replicates if not stated otherwise in figure legends. Concentration–response curves were fitted by non-linear regression to the sigmoidal concentration-response model with GraphPad Prism (version 9.0.0, GraphPad Software, San Diego, CA, United States) as described ([Lie et al., 2020]).

| Increase in inhibitory activity relative to wt | IC50 (read-out: IC50) [µM] | IC50 (read-out: pIC50 ± S.E.M. (converted)) [µM] | Compound |
| --- | --- | --- | --- |
| not increased | 291 |  | CN[C@@]12CC[C@H](C(=O)O)[C@@H]1C2 [compound 2] |
| 38 times | 16 | 12.6 | N[C@@]12CC[C@H](C(=O)O)[C@@H]1C2 [bicyclo-GABA, (1S,2S,5R)-5-aminobicyclo[3.1.0]hexane-2-carboxylic acid] |
